Measurements published in ChEMBL document CHEMBL1201862, “PubChem BioAssay data set” (2004).
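Each compound was tested at five concentrations against cells in 96-well plates for 48 hours. Here, GI50 denotes the concentration required for 50% inhibition of growth.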 Calls of active or inactive are those of the source. No stated cut-off is given here; in the data, active = GI50 up to about 1.1 µM and inactive = higher.

Legend:
Assay in all cases: DTP human tumour cell line panel, 48 h
[1] = tested on: 786-0
[2] = tested on: A549
[3] = tested on: COLO 205
[4] = tested on: HOP-92
[5] = tested on: IGROV-1
[6] = tested on: KM12
[7] = tested on: LOX IMVI
[8] = tested on: Malme-3M
[9] = tested on: NCI-H226
[10] = tested on: OVCAR-4
[11] = tested on: OVCAR-5
[12] = tested on: TK-10
[13] = tested on: U-251
[14] = tested on: UACC-62
[15] = tested on: UO-31
[16] = tested on: MOLT-4
[17] = tested on: NCI-H522

Measured: GI50

O=c1cc2ccccc2nn1-c1ccccc1Cl
inactive: [1] > 100 µM | [2] > 100 µM | [3] > 100 µM | [4] > 100 µM | [5] > 100 µM | [6] > 100 µM | [7] > 100 µM | [8] > 100 µM | [9] > 100 µM | [10] > 100 µM | [11] > 100 µM | [12] > 100 µM | [13] > 100 µM | [14] 89.3 µM | [15] 26.2 µM

O=c1cccccc1NCCCCCCCCNc1cccccc1=O
inactive: [1] > 100 µM | [2] 39.9 µM | [3] > 100 µM | [4] 22.9 µM | [5] 94.2 µM | [6] > 100 µM | [7] 14.3 µM | [16] 36.1 µM | [8] > 100 µM | [9] > 100 µM | [17] 75.3 µM | [11] > 100 µM | [13] > 100 µM | [14] > 100 µM | [15] 35.4 µM

N=S(=O)(c1ccccc1)c1ccccc1[N+](=O)[O-] (stereo not drawn)
inactive: [1] > 100 µM | [2] > 100 µM | [3] > 100 µM | [5] > 100 µM | [6] > 100 µM | [16] > 100 µM | [8] > 100 µM | [9] > 100 µM | [17] > 100 µM | [10] > 100 µM | [11] > 100 µM | [12] > 100 µM | [13] > 100 µM | [14] > 100 µM | [15] > 100 µM

CN(C)CCCNc1ccnc2c([N+](=O)[O-])cccc12
inactive: [1] 22.2 µM | [2] 28.2 µM | [3] 2.37 µM | [6] 24.9 µM | [7] 19.5 µM | [16] 21.8 µM | [8] 2.52 µM | [9] > 100 µM | [17] 17.1 µM | [10] 15.2 µM | [11] > 10 µM | [12] > 100 µM | [13] 30.2 µM | [15] 38.7 µM

COc1ccccc1/C=C(\C#N)c1ccccc1
inactive: [1] 20 µM | [2] 37 µM | [3] 15.6 µM | [4] 45 µM | [5] 43.3 µM | [6] 18.5 µM | [7] 46.9 µM | [16] 16.6 µM | [9] 3.13 µM | [17] 16.6 µM | [10] 30.2 µM | [11] > 100 µM | [12] 40.7 µM | [13] 24.6 µM | [14] 44.9 µM | [15] 28.8 µM

N=C(N)NS(=O)(=O)c1ccc(Nc2c3ccccc3nc3c(C(=O)Nc4ccc(S(N)(=O)=O)cc4)cccc23)cc1
inactive: [1] > 100 µM | [2] > 100 µM | [3] > 100 µM | [4] 47.9 µM | [5] > 100 µM | [6] > 100 µM | [7] 28.2 µM | [16] > 100 µM | [8] > 100 µM | [17] 15.8 µM | [10] > 100 µM | [11] > 100 µM | [12] > 100 µM | [13] 94.2 µM | [14] 93.3 µM | [15] > 100 µM

O=C(c1ccccc1)c1c(-c2ccccc2)sc2nc3ccccc3nc12
inactive: [1] 38.1 µM | [2] > 100 µM | [3] > 100 µM | [4] 16.4 µM | [5] > 100 µM | [6] > 100 µM | [16] > 100 µM | [8] 92.3 µM | [9] 20.3 µM | [17] > 100 µM | [10] 37.8 µM | [11] > 100 µM | [12] > 100 µM | [13] > 100 µM | [14] > 100 µM

C#Cc1cccc(N2C(=O)c3c(c(-c4ccccc4)c(-c4ccc(Cc5ccc(-c6c(-c7ccccc7)c7c(c(-c8ccccc8)c6-c6ccccc6)C(=O)N(c6cccc(C#C)c6)C7=O)cc5)cc4)c(-c4ccccc4)c3-c3ccccc3)C2=O)c1
inactive: [1] 30.2 µM | [2] 24.4 µM | [3] 27 µM | [4] 2.79 µM | [5] 12.6 µM | [6] 25.6 µM | [16] 14.3 µM | [8] 45 µM | [17] > 100 µM | [10] > 100 µM | [11] > 100 µM | [12] 17.9 µM | [13] 33 µM | [14] 5.6 µM | [15] 36.7 µM

Cc1cc([N+](=O)[O-])ccc1Nc1cccc(Cl)c1C
inactive: [1] 14 µM | [2] 16.6 µM | [3] 17 µM | [5] 13.6 µM | [6] 16 µM | [7] 17.3 µM | [16] 14.8 µM | [8] 15.2 µM | [9] 18.9 µM | [17] 16.1 µM | [10] 16.5 µM | [11] 14.7 µM | [12] 14.8 µM | [13] 16.3 µM | [14] 12.6 µM | [15] 11.7 µM

O=C(OC1CCC2OOC1O2)c1ccc([N+](=O)[O-])cc1 (stereo not drawn)
inactive: [1] > 100 µM | [2] > 100 µM | [3] > 100 µM | [5] > 100 µM | [6] > 100 µM | [7] > 100 µM | [16] > 100 µM | [8] > 100 µM | [9] > 100 µM | [17] > 100 µM | [10] > 100 µM | [11] > 100 µM | [12] > 100 µM | [13] > 100 µM | [14] > 100 µM | [15] > 100 µM

CCC(/C=C/c1ccccc1)=N\N=C(\C=C\c1ccccc1)CC
inactive: [1] > 100 µM | [2] > 100 µM | [3] > 100 µM | [5] > 100 µM | [6] > 100 µM | [7] > 100 µM | [16] > 100 µM | [8] > 100 µM | [9] > 100 µM | [17] > 100 µM | [10] > 100 µM | [11] > 100 µM | [12] > 100 µM | [13] > 100 µM | [14] > 100 µM | [15] > 100 µM

O=C1C2Cc3ccccc3CN2C(=O)N1CCN1CCOCC1 (stereo not drawn)
inactive: [1] > 100 µM | [2] > 100 µM | [3] > 100 µM | [5] > 100 µM | [6] > 100 µM | [7] > 100 µM | [16] > 100 µM | [8] > 100 µM | [9] > 100 µM | [17] > 100 µM | [10] > 100 µM | [11] > 100 µM | [12] > 100 µM | [13] > 100 µM | [14] > 100 µM | [15] > 100 µM

CN(C)CCCCC1CCN(CC(=O)N2c3ccccc3NC(=O)c3ccccc32)CC1
inactive: [1] > 100 µM | [2] > 100 µM | [3] > 100 µM | [4] > 100 µM | [6] > 100 µM | [16] > 100 µM | [8] > 100 µM | [9] > 100 µM | [17] > 100 µM | [10] > 100 µM | [12] > 100 µM | [14] > 100 µM | [15] > 100 µM
